Tests used:
Type in all cases: biochemical
Human PI3K gamma = target: T1, Human PI3K gamma (Homo sapiens, UniProt P48736); assay: Human PI3K gamma enzyme assay (HTRF); details: concentration not given, b1389 states 1.0 μM for PI3K δ and γ; for inhibition at 1 µM: read-out: p110 gamma Percent Inhibition
T1 construct: His (N); host or cells: SF9 insect cells (baculovirus)
Source text: (§1) The catalytic subunits of PI3Ks are cloned into either pDEST8(p110 alpha) or pDEST10(p110beta, p110delta, and p110gamma) as N-terminal His tagged fusion proteins using the Gateway system (Invitrogen, catalog#11804-010 for pDEST8 and 11806-015 for pDEST10). The sequences are verified before recombinant protein expression using the Baculovirus Expression System with Gateway® Technology. The accession numbers for the subunits are as follows: • p110 alpha (GB:U79143) • p110beta (GB: S67334) • p110delta (GB: U86453) • p110gamma (GB: X83368) • The regulatory subunits of PI3Ks are cloned into pDEST8 as un-tagged protein using the Gateway system (Catalog#11804-010). The sequences are verified before recombinant protein expression using the Baculovirus Expression System with Gateway® Technology. The accession numbers for the subunits are as following: • p85 alpha (GB: BC030815) • p101(GB: AB028925) • VPS34 (accession number GB:BC033004) is cloned into pDEST20—Thombin as N-terminal GST tagged fusion proteins using the Gateway system (Invitrogen, catalog#11804-013). The sequences are verified before recombinant protein expression using the Baculovirus Expression System with Gateway® Technology.
(§2) For expression of the p110 complexes, the p85 (MOI of 4) is co-infected with p110 alpha, beta, and delta respectively (1MOI) in SF9 cells and harvested at 60 hours post co-infection. P110 gamma was infected at 1 MOI and harvested at 60 hours post infection.
(§3) For purification, PI3Ks are purified by Ni-NTA Agarose (Qiagen #30250) followed by Mono Q 10/100 GL (Ge Healthcare #17-5167-01). VPS34 is purified by Glutathione Sepharose 4 Fast Flow (GE Healthcare #17-5132-03) followed by HiTrap Q (GE Healthcare #17-1153-01).
(§4) 0.5 uL compounds in DMSO are added to wells of a 384 well microtitre plate (Corning 3575). At room temperature: 10 ul PI3K reaction buffer (50 mM Hepes, 5 mM DTT, 150 mM NaCl, 10 mM beta-glycerophosphate, 10 mM MgCl2, 0.25 mM sodium cholate and 0.001% CHAPS, pH 7.00) containing ATP (25 uM, Promega) is added followed immediately by 10 ul PI3K reaction buffer containing di-C8 P1(4,5)P2 (3.5 uM, CellSignals) and PI3Kalpha (0.4875 nM, Millennium Protein Sciences Group) and the mixture is incubated with shaking at room temperature for 30 minutes. Then 5 ul PI3K stop mix (50 mM Hepes, 5 mM DTT, 150 mM NaCl, 0.01% Tween-20, 15 mM EDTA and 25 nM biotin-PI(3,4,5)P3 (Echelon) is added to quench the reaction followed immediately by addition of 5 ul HTRF detection mix (50 mM Hepes, 5 mM DTT, 150 mM NaCl, 0.01% Tween-20, 40 mM KF, 1.0 nM GST:GRP-1 PH domain (Millennium Protein Sciences Group), 15 nM Streptavidin-XL (CisBio) and 0.375 nM anti-GST Eu++ antibody (CisBio) at pH 7.00). The plates are then incubated for 1 hour at room temperature with shaking and then read on a BMG PheraStar Plus reader.
(§5) 2) Human PI3K beta, delta and gamma isoforms are tested using the procedure described for PI3K alpha above but with the following changes: PI3K beta (5.25 nM), PI3K delta (0.75 nM) and PI3K gamma (5 nM). All isoforms supplied by Millennium Protein Science Group.
(§6) For the assay methods described above, test compound percent inhibition, at various concentrations, is calculated relative to control (DMSO and EDTA) treated samples. Compound concentration versus percent inhibition curves are fitted to generate IC50 values. One skilled in the art will appreciate that the values generated either as percentage inhibition at a single concentration or IC50 values are subject to experimental variation.

Human PI3K alpha = target: T2, Human PI3K alpha (Homo sapiens, UniProt P42336); assay: Human PI3K alpha enzyme assay (HTRF); details: concentration not given, b1387 states 1.1 μM for PI3K α and β; for inhibition at 1.1 µM: read-out: p110 alpha Percent Inhibition
T2 construct: His (N); host or cells: SF9 insect cells (baculovirus)
T2 sequence (P42336 whole entry): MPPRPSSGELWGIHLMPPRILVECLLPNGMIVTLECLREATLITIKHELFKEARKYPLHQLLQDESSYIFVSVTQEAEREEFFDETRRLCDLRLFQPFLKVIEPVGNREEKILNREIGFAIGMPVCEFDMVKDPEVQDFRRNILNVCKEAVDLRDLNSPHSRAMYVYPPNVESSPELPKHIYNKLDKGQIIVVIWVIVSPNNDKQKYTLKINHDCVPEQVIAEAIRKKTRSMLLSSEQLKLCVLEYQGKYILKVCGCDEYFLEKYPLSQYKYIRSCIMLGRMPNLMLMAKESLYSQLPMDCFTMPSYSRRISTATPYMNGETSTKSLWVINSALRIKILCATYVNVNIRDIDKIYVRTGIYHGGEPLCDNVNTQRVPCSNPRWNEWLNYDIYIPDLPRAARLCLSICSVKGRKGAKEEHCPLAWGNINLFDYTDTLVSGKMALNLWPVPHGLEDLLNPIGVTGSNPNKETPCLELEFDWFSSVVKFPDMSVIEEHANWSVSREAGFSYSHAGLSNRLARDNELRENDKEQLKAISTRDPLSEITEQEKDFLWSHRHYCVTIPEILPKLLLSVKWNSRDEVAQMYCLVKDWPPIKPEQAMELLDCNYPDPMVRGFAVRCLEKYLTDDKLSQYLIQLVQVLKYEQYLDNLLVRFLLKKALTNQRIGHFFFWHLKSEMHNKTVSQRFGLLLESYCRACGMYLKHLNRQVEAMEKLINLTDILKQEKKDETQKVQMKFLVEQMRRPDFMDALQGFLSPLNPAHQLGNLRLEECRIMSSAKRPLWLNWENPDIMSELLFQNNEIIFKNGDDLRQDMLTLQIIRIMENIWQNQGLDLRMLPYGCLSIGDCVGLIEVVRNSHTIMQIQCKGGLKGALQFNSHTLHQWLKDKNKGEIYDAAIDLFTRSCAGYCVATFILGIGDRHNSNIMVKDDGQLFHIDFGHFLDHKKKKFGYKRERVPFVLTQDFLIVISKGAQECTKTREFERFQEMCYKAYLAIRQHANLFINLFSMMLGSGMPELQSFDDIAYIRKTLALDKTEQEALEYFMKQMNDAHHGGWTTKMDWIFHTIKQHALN
T2 sequence (P27986 whole entry partner): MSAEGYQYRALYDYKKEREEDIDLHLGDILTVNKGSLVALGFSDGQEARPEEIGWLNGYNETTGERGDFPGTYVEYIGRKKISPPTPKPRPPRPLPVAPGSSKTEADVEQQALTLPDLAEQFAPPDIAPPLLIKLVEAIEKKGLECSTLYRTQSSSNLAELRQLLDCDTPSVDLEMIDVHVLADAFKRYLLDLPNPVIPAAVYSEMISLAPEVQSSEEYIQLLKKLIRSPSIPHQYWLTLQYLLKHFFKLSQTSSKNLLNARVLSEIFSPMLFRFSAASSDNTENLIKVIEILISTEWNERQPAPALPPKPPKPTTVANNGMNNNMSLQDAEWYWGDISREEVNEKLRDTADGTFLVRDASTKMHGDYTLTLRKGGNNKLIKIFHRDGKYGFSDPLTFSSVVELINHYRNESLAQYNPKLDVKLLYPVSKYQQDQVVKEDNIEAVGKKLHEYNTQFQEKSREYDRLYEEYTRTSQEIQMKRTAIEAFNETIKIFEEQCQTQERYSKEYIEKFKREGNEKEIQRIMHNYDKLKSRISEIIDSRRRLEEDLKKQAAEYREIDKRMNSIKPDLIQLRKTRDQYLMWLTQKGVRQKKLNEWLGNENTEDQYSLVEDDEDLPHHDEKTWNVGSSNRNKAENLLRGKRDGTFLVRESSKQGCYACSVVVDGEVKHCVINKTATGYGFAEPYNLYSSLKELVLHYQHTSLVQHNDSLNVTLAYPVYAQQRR

Human PI3K beta = target: T3, Human PI3K beta (Homo sapiens, UniProt P42338); assay: Human PI3K beta enzyme assay (HTRF); details: concentration not given, b1387 states 1.1 μM for PI3K α and β; for inhibition at 1.1 µM: read-out: p110 beta Percent Inhibition
T3 construct: His (N); host or cells: SF9 insect cells (baculovirus)
T3 sequence (P42338 whole entry): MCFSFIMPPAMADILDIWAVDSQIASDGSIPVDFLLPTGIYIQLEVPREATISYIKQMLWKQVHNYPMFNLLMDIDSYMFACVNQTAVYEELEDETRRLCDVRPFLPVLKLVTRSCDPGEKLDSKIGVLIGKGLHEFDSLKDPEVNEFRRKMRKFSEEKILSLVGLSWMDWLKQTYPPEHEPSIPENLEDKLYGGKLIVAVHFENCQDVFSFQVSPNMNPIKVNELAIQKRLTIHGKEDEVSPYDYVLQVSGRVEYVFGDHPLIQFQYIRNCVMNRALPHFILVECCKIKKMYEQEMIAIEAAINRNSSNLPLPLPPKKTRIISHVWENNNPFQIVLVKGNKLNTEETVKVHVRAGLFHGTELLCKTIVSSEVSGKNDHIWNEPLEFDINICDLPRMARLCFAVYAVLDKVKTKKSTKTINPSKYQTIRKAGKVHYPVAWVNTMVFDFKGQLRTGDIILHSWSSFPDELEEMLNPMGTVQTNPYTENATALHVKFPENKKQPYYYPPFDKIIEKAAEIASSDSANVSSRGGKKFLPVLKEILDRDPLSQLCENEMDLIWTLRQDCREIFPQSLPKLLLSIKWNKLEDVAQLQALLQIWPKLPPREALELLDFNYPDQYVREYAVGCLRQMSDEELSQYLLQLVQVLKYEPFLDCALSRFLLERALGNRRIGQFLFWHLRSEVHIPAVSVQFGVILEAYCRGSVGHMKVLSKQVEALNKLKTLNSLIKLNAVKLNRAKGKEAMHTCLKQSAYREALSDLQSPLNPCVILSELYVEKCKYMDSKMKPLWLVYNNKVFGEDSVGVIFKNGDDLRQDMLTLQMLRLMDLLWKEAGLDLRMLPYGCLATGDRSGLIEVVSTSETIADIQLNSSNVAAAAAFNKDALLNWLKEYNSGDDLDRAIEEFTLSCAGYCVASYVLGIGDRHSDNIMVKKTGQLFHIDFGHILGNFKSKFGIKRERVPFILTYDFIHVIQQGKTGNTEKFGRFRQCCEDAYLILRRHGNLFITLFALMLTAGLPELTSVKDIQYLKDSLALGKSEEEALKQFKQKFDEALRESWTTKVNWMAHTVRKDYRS
T3 sequence (P27986 whole entry partner): as the sequence (P27986 whole entry partner) above
Summary of the method: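 Compounds were mixed with 25 uM ATP, then with 3.5 uM di-C8 PI(4,5)P2 and His-tagged PI3K isoform (β 5.25 nM, δ 0.75 nM, γ 5 nM) at pH 7.00. After 30 min at room temperature, EDTA stopped the reaction and PIP3 was measured by HTRF over 1 h.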

Human PI3K delta = target: T4, Human PI3K delta (Homo sapiens, UniProt O00329); assay: Human PI3K delta enzyme assay (HTRF); details: concentration not given, b1389 states 1.0 μM for PI3K δ and γ; for inhibition at 1 µM: read-out: p110 delta Percent Inhibition
T4 construct: His (N); host or cells: SF9 insect cells (baculovirus)
T4 sequence (O00329 whole entry): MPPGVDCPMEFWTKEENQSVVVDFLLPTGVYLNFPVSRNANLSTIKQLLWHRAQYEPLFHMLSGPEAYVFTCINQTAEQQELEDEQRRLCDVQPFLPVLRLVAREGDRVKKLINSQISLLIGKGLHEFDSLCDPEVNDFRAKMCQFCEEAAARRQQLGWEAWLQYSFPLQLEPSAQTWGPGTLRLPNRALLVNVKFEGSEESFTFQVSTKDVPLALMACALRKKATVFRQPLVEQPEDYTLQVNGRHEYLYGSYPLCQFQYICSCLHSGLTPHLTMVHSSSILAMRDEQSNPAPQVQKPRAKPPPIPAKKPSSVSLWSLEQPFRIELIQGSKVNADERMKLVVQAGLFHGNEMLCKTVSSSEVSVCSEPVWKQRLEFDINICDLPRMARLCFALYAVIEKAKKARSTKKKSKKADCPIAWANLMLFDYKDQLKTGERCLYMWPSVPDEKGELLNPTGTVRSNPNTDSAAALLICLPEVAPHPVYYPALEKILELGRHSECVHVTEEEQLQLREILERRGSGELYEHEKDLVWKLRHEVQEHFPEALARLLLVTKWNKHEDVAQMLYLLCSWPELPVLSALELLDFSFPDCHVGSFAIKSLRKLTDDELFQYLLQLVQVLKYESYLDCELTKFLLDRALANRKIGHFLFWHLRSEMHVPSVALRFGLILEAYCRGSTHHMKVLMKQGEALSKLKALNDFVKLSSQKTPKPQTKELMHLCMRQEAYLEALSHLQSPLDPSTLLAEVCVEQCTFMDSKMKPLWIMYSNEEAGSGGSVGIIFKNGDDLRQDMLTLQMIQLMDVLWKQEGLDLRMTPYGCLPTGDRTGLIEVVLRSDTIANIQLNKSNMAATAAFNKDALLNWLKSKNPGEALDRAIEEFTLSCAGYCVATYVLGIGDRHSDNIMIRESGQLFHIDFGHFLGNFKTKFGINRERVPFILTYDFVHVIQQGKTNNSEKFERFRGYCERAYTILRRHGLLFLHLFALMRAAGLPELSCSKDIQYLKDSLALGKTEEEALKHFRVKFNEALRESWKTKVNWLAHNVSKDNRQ
T4 sequence (P27986 whole entry partner): as the sequence (P27986 whole entry partner) above
Source text: as §1, §2, §3, §4, §5, §6

T1 sequence (P48736 whole entry): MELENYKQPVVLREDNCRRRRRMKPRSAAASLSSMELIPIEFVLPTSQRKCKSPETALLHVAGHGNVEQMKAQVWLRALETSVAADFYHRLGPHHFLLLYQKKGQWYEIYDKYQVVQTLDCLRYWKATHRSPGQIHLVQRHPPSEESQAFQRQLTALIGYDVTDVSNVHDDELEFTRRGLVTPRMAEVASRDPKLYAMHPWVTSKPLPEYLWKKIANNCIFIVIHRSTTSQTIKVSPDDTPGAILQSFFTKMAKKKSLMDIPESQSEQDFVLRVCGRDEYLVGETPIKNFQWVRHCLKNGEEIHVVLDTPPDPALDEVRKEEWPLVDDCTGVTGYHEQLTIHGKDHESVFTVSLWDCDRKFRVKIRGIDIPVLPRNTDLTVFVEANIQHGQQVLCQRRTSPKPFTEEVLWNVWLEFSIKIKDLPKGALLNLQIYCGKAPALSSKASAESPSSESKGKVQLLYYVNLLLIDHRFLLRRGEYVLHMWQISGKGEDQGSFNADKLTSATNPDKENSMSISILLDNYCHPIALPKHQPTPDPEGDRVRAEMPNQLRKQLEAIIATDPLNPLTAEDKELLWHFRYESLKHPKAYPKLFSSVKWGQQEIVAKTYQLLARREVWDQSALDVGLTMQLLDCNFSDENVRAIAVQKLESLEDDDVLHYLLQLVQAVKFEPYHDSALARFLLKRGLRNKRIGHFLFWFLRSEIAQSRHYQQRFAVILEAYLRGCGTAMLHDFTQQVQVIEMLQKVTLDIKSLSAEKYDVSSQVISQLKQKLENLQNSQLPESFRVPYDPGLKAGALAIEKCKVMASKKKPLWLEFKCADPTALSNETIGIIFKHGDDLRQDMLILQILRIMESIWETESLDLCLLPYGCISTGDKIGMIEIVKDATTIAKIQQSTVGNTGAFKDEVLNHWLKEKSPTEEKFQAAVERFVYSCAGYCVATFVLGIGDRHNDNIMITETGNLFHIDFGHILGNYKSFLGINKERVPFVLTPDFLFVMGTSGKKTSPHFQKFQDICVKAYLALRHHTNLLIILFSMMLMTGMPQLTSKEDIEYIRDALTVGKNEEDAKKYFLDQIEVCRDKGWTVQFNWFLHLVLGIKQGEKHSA

SMILES | inhibition at 1 µM (Human PI3K gamma) [%] | inhibition at 1.1 µM (Human PI3K alpha) [%] | inhibition at 1.1 µM (Human PI3K beta) [%] | inhibition at 1 µM (Human PI3K delta) [%] | p110 gamma Percent Inhibition (Human PI3K gamma) [%] | p110 alpha Percent Inhibition (Human PI3K alpha) [%] | p110 beta Percent Inhibition (Human PI3K beta) [%] | p110 delta Percent Inhibition (Human PI3K delta) [%]
CC(=O)Nc1cc(-c2cc(C(c3ccc(Cl)cc3)n3ccnc3)c(-c3nnc[nH]3)s2)ccn1 (centres unmarked) [Compound 167] | 26 | 105 | 103 | 110 |  |  |  | 
COc1cc(C(O)c2cc(-c3ccnnc3)sc2-c2nnc[nH]2)c(F)cc1Cl (centres unmarked) [Compound 168] |  |  |  |  | 58 | 23 | 107 | 110
OC(c1cc(-c2ccncc2)sc1-c1nnc[nH]1)c1cccc2nccnc12 (centres unmarked) [Compound 169] | 7 | 65 | 89 | 65 |  |  |  | 
CNC1CN(C(c2ccc(Cl)cc2)c2cc(-c3ccnc(NC(C)=O)c3)sc2-c2nnc[nH]2)C1 (centres unmarked) [Compound 170] | 26 | 84 | 106 | 105 |  |  |  | 
OC(c1ccc2ccccc2n1)c1cc(-c2ccncc2)sc1-c1nnc[nH]1 (centres unmarked) [Compound 171] | 60 | 59 | 106 | 99 |  |  |  | 
N#Cc1c(-c2ccnnc2)sc(-c2nnc[nH]2)c1C(c1ccc2ccccc2c1)N1CCNCC1 (centres unmarked) [Compound 172] | 6 | 28 | 101 | 60 |  |  |  | 
CC(=O)Nc1cc(-c2cc(C(OCC3CCCC3)c3ccc(Cl)cc3)c(-c3nnc[nH]3)s2)ccn1 (centres unmarked) [Compound 173] | 3 | 69 | 67 | 83 |  |  |  | 
Cc1ccc(C(O)c2cc(-c3ccncc3)sc2-c2nnc[nH]2)cc1C (centres unmarked) [Compound 174] | 8 | 15 | 70 | 59 |  |  |  | 
OC(c1cc(-c2ccncc2)sc1-c1nnc[nH]1)c1ccnc2ccccc12 (centres unmarked) [Compound 175] | 7 | 19 | 85 | 36 |  |  |  | 
CC(=O)Nc1cc(-c2nc(Cc3ccc4ccccc4c3)c(C(=O)O)s2)ccn1 [Compound 177, 2-(2-acetamidopyridin-4-yl)-4-(naphthalen-2-ylmethyl)thiazole-5-carboxylic acid] | 34 | 79 | 100 | 106 |  |  |  | 
Oc1cc(-c2sc(-c3ccncc3)nc2Cc2ccc(Cl)cc2)[nH]n1 [Compound 178, 5-(4-(4-chlorobenzyl)-2-(pyridin-4-yl)thiazol-5-yl)-1H-pyrazol-3-ol] | 38 | 20 | 109 | 88 |  |  |  | 
COC(=O)Nc1cc(-c2sc(-c3nnc[nH]3)c(Cc3ccc4ccccc4c3)c2C#N)ccn1 [Compound 179] | 5 | 29 | 60 | 89 |  |  |  | 
COC(=O)Nc1cc(-c2sc(C(=O)O)c(Cc3ccc4ccccc4c3)c2C#N)ccn1 [Compound 180] | 21 | 60 | 102 | 102 |  |  |  | 
CC(=O)Nc1cc(-c2cc(C(c3ccc(Cl)cc3)N3CC(N(C)C)C3)c(-c3nnc[nH]3)s2)ccn1 (centres unmarked) [Compound 181, N-{4-[4-{(4-chlorophenyl)[3-(dimethylamino)azetidin-1-yl]-methyl}-5-(4H-1,2,4-triazol-3-yl)-2-thienyl]pyridin-2-yl}acetamide] |  |  |  |  | 35 | 85 | 91 | 108
CC(=O)Nc1cc(-c2cc(C(OCC3CNC3)c3ccc(Cl)cc3)c(-c3nnc[nH]3)s2)ccn1 (centres unmarked) [Compound 182] | 45 | 83 | 100 | 107 |  |  |  | 
Cc1n[nH]c(C)c1-c1sc(-c2ccncc2)nc1Cc1ccc(Cl)cc1 [Compound 183] | 3 | -2 | 16 | 9 |  |  |  | 
CC(=O)Nc1cc(-c2cc(C(NCCN(C)C)c3ccc(Cl)cc3)c(-c3nnc[nH]3)s2)ccn1 (centres unmarked) [Compound 184] | 16 | 76 | 112 | 112 |  |  |  | 
CN(C)C(c1ccc(Cl)cc1)c1cc(-c2ccnc(N)c2)sc1-c1nnc[nH]1 (centres unmarked) [Compound 185] | 9 | 16 | 97 | 50 |  |  |  | 
COc1cc(C(O)c2cc(-c3ccncc3)sc2-c2ncn[nH]2)c(F)cc1Cl (centres unmarked) [Compound 186] | 65 | 68 | 109 | 92 |  |  |  | 
OC(c1ccc(F)cc1Cl)c1cc(-c2ccncc2)sc1-c1nnc[nH]1 (centres unmarked) [Compound 187] | 25 | 32 | 95 | 77 |  |  |  | 
Cc1ccc(F)c(C(O)c2cc(-c3ccncc3)sc2-c2nnc[nH]2)c1 (centres unmarked) [Compound 188] | 36 | 47 | 94 | 82 |  |  |  | 
Clc1ccc(Cc2nc(-c3ccncc3)sc2-c2nnn[nH]2)cc1 [Compound 190, 4-(4-chlorobenzyl)-2-(pyridin-4-yl)-5-(1H-tetrazol-5-yl)thiazole] | 7 | 3 | 60 | 33 |  |  |  | 
COc1ccc(C(O)c2cc(-c3ccncc3)sc2-c2nnc[nH]2)cc1Cl (centres unmarked) [Compound 191] | 30 | 26 | 97 | 90 |  |  |  | 
OC(c1ccccc1C(F)(F)F)c1cc(-c2ccncc2)sc1-c1nnc[nH]1 (centres unmarked) [Compound 193] | 13 | 26 | 69 | 46 |  |  |  | 
COC(=O)Nc1cc(-c2sc(-c3nnc[nH]3)c(C(O)c3ccc(Cl)cc3)c2C#N)ccn1 (centres unmarked) [Compound 195, Methyl {4-[4-[(4-chlorophenyl)(hydroxy)methyl]-3-cyano-5-(4H-1,2,4-triazol-3-yl)-2-thienyl]pyridin-2-yl}carbamate] | 8 | 52 | 74 | 88 |  |  |  | 
CC(=O)Nc1cc(-c2cc(C(c3ccc(Cl)cc3)N3CCN(C(C)=O)CC3)c(-c3nnc[nH]3)s2)ccn1 (centres unmarked) [Compound 196] | 12 | 69 | 91 | 105 |  |  |  | 
